Assay results taken from paper PMC2736327 (Molecular carcinogenesis, 2009).

Target: autotaxin (ATX) (Homo sapiens, UniProt Q13822)
Format: biochemical

VPC8a202
Ki: ~390 nM
